Source: patent US20250006334A1, “SIROLIMUS PHARMACOKINETICS GUIDED AND MODEL INFORMED PRECISION DOSING” (Children's Hospital Medical Center, priority 2023, published 2025)

Test: Observed sirolimus trough blood concentration in infant patients under model-informed precision dosing
Format: in vivo, human
From the text: After therapy has been initiated using the initial dose, data may be collected 103 on the impact of the therapy. This may be done, for example, by, 7-14 days after the start of therapy, taking a pre-dose trough blood sample which could then be sent to a lab to determine a sirolimus blood concentration. Alternatively, in some cases additional samples may be taken. For example, in a case where an abbreviated area under the curve PK consult is ordered, data collection 103 may include taking three whole blood samples: a first sample taken 15-30 minutes before a dose, a second sample taken 45-75 minutes after the dose, and a third sample taken 150-210 minutes after the dose. A laboratory could then process the sample(s), and the sirolimus concentration could be reported back. For example, in a case where an application for recommending individualized sirolimus doses was implemented based on this disclosure, the lab could report the results back through an API exposed by a web portal supported by the application, or could send the results back through an external communication channel (e.g., secure email) to the user of the application, and that user could then input the results to the application himself or herself.
However the model refinement 105 is performed, once a refined model is available, it may be applied 106 to determine a personalized dose for the patient. […]

- observed sirolimus trough concentration at six months of age (FIG. 2, infant who started sirolimus at 2 months of age, doses predicted from weight, PMA and concentration measured at three months, target range 10-12 ng/mL): 9.3 ng/mL
- observed sirolimus trough concentration at 6 months (FIG. 3, prediction from age 4 months to 6 months based on concentration at 4 months, weight and PMA, target trough range 10-12 ng/mL): 10.5 ng/mL
SMILES: CO[C@H]1C[C@@H]2CC[C@@H](C)[C@@](O)(O2)C(=O)C(=O)N2CCCC[C@H]2C(=O)O[C@H]([C@H](C)C[C@@H]2CC[C@@H](O)[C@H](OC)C2)CC(=O)[C@H](C)/C=C(\C)[C@@H](O)[C@@H](OC)C(=O)[C@H](C)C[C@H](C)/C=C/C=C/C=C/1C [sirolimus]
